The text below walks through data of patent publication EP0198508A1, “L-phosphoserine salts, a process for the preparation thereof and pharmaceutical compositions containing them” (LABORATORI PROPHIN S.p.A., priority 1985, dated 1986).

Where a name gives a salt, the structure may show the parent alone. Marks after values point to notes of the source that are not given here.

The subject of test [1] is Wistar rats. The test can be described thus: Shuttle box test: acquirement of conditioned avoidance responses (CARs). The test is classed as in vivo. Particulars: for CARs: mean + ES; for effect on number of conditioned responses and percentage of learners (in words): young and elderly rats, PR 156 tested only on young rats. As to the method: (§1) Male young and elderly Wistar rats, weighing respectively […] and 580 g, were used.
(§2) The test compounds, dissolved in physiological saline, were administered orally to young and elderly animals, at doses of 5, lO and 20 mg/kg. Phosphoserine dissolved in physiological saline was administered at equimolecular doses (1.8, 3.6 and 7.2 mg/kg). The control animals were administered with the sole vehicle. The administrations were carried out once a day during 20 days, the last administration being effected 1 hour before the tests.
The following behavioral tests were carried out: • 1) Shuttle box test: to evaluate the acquirement of conditioned avoidance responses (CARs).

The test system of test [2] is Wistar rats. The experiment in a line: Dark box test: effect on memory capability. To be noted: for LATENCY (seconds): averages; for effect on acquirement of avoidance responses (in words): summary of Table 2, young and elderly rats. The test is classed as in vivo. How it is done: as §1, §2
2. Dark box test: to further evaluate the effect on memory capability of the animals.

The subject of test [3] is elderly rats. The experiment in a line: Despair test: antidepressant activity. The test is classed as in vivo, Wistar rats. Particulars: for DURATION OF STILLNESS: Elderly rats, mean + SEM; for effect on stillness (in words): summary in text of Table 3, elderly rats. As to the method: as §1, §2
3. Despair test: to estimate the antidepressant activity on the elderly rats.

Setting [4] is: Young rats, 5 mg/kg orally once a day during 20 days, 5 mg/kg.
Setting [5] is: Young rats, 10 mg/kg orally once a day during 20 days, 10 mg/kg.
The mark [6] stands for this setting: Elderly rats, 5 mg/kg orally once a day during 20 days.
Setting [7] is: Elderly rats, 10 mg/kg orally once a day during 20 days.
[8] abbreviates: Elderly rats, 20 mg/kg orally once a day during 20 days.
The mark [9] stands for this setting: Young rats, 20 mg/kg orally once a day during 20 days.
The mark [10] stands for this setting: Elderly rats, 1.8 mg/kg orally once a day during 20 days.
Setting [11] is: Elderly rats, 3.6 mg/kg orally once a day during 20 days.
[12] abbreviates: Elderly rats, 7.2 mg/kg orally once a day during 20 days.
Where [13] appears, read: Young rats, 1.8 mg/kg orally once a day during 20 days.
[14] abbreviates: Young rats, 3.6 mg/kg orally once a day during 20 days.
[15] abbreviates: Young rats, 7.2 mg/kg orally once a day during 20 days.

In the case of `N[C@@H](COP(=O)(O)O)C(=O)O` [PR 156, L-Phosphoserine salt with L-Arginine 1:2], in test [1] (setting [4]), the “LEARNERS (%)” value is listed as 100.0% and the CARs is recorded as 23.4 + 1.9**. For the same molecule, in test [1] (setting [5]), the “LEARNERS (%)” value turned out to be 100.0% and the CARs is 24.0 + 1.8**. Further, in test [1], the “effect on number of conditioned responses and percentage of learners (in words)” value is “proved also to be effective”.
In the case of `N[C@@H](COP(=O)(O)O)C(=O)O` [PR 157, L-Phosphoserine salt with L-Arginine and L-Lysine], the “LEARNERS (%)” value in test [1] (setting [6]) is on record as 25.0%; in test [1] (setting [7]) it was 50.0** %; in test [1] (setting [8]), 50.0** %; in test [1] (setting [4]), 50.0%; in test [1] (setting [5]), 75.0** %; in test [1] (setting [9]), 100.0** %. Moreover, the CARs in test [1] (setting [6]) is listed as 7.9 + 0.3*; in test [1] (setting [7]), 11.5 + 0.3*; in test [1] (setting [8]), 18.6 + 0.4*; in test [1] (setting [4]), 19.4 + 0.4*; in test [1] (setting [5]), 22.2 + 1.4*; in test [1] (setting [9]) it was 24.4 + 1.4*. Further, in test [1], the “effect on number of conditioned responses and percentage of learners (in words)” value was “caused an increase in the number of conditioned responses as well as in the percentage of learners, both in young and elderly animals”. Further, the “LATENCY (seconds)” value is recorded as “(12) 46.0* seconds” in test [2] (setting [6]); “(12) 79.4* seconds” in test [2] (setting [7]); “(12) 82.0* seconds” in test [2] (setting [8]); “(12) 112.3* seconds” in test [2] (Young rats, 5 mg/kg orally once a day during 20 days); “(12) 161.5* seconds” in test [2] (Young rats, 10 mg/kg orally once a day during 20 days); “(12) 265.1* seconds” in test [2] (setting [9]). Further, in test [2], the “effect on acquirement of avoidance responses (in words)” value is “caused a dose-related improvement in the acquirement of avoidance responses both in young and elderly animals”. For the same molecule, the “DURATION OF STILLNESS” value in test [3] (5 mg/kg orally once a day during 20 days) is given as 280.2 + 20.3*; in test [3] (10 mg/kg orally once a day during 20 days), 263.1 + 33.4*; in test [3] (20 mg/kg orally once a day during 20 days), 236.7 + 28.9*. Moreover, the “effect on stillness (in words)” value in test [3] was “showed a dose-related reduction in the stillness of the elderly rats”.
As for `N[C@@H](COP(=O)(O)O)C(=O)O` [Phosphoserine], the “LEARNERS (%)” value in test [1] (setting [10]) was 25.0%; in test [1] (setting [11]), 37.5* %; in test [1] (setting [12]), 37.5** %; in test [1] (setting [13]) it was 50.0%; in test [1] (setting [14]) it was 50.0%; in test [1] (setting [15]), 75.0%. Also, the CARs is 5.9 + 0.4* in test [1] (setting [10]); 6.2 + 0.5* in test [1] (setting [11]); 9.2 + 0.6* in test [1] (setting [12]); 16.1 + 0.5 in test [1] (setting [13]); 17.6 + 0.5 in test [1] (setting [14]); 17.2 + 0.6 in test [1] (setting [15]). In addition, the “effect on number of conditioned responses and percentage of learners (in words)” value in test [1] is reported as “caused similar effects on the elderly animals only”. Moreover, the “LATENCY (seconds)” value in test [2] (setting [10]) is reported as “(12) 34.8 seconds”; in test [2] (setting [11]) it was “(12) 50.7* seconds”; in test [2] (setting [12]), “(12) 65.0* seconds”; in test [2] (setting [13]) it was “(12) 97.5* seconds”; in test [2] (setting [14]) it was “(12) 110.2* seconds”; in test [2] (setting [15]), “(12) 186.0* seconds”. Besides, the “effect on acquirement of avoidance responses (in words)” value in test [2] is “proved to be effective only on the elderly animals”. Moreover, the results for the “DURATION OF STILLNESS” value in test [3] (1.8 mg/kg orally once a day during 20 days), in test [3] (3.6 mg/kg orally once a day during 20 days) and in test [3] (7.2 mg/kg orally once a day during 20 days) were 301.0 + 31.4*, 291.7 + 32.7* and 265.8 + 24.7*, respectively. Moreover, the “effect on stillness (in words)” value in test [3] is “showed a dose-related reduction in the stillness of the elderly rats”.
